Data as given in PMC7156458, “Synthetic biology based construction of biological activity-related library of fungal decalin-containing diterpenoid pyrones” (Nature Communications, 2020).

Target: Aβ42 (Homo sapiens, UniProt P05067)
Experiment: Th-T (thioflavin-T) assay of Aβ42 aggregation
Format: biochemical
Conditions: for Th-T fluorescence, mean of three wells: Aβ42 aggregation time course

Aβ42, sequence (P05067 672-713): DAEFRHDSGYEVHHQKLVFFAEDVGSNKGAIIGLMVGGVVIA

For `C=C1CCC2C(C)(CCC=C(C)C)C(O)CCC2(C)C1Cc1c(OC)oc(CO)c(C)c1=O` (stereo not drawn) [Compound 12], the “delay of the nucleation phase” value was “no delay”, the “elongation of Aβ42” value was “partly suppressed the elongation of Aβ42” and the “first Th-T assay result” value (Aβ42 (10 μM) ± DPPs (20 μM), room temperature) was “suppressed Aβ42”. For the same compound, the “Th-T fluorescence, mean of three wells” value (reading M117) was 2.054, the “Th-T fluorescence, mean of three wells” value (reading M118) was 2.063 and the “Th-T fluorescence, mean of three wells” value (reading M119) was 2.053. The “Th-T fluorescence, mean of three wells” value (reading M120) was 2.05, the “Th-T fluorescence, mean of three wells” value (reading M121) was 2.047 and the “Th-T fluorescence, mean of three wells” value (reading M122) was 2.039. The “Th-T fluorescence, mean of three wells” value (reading M123) was 2.052, the “Th-T fluorescence, mean of three wells” value (reading M124) was 2.0354 and the “Th-T fluorescence, mean of three wells” value (reading M125) was 2.03. For the same compound, the “Th-T fluorescence, mean of three wells” value (reading M126) was 2.03, the “Th-T fluorescence, mean of three wells” value (reading M127) was 2.041 and the “Th-T fluorescence, mean of three wells” value (reading M128) was 2.036. For the same compound, the “Th-T fluorescence, mean of three wells” value (reading M129) was 2.023, the “Th-T fluorescence, mean of three wells” value (reading M130) was 2.033 and the “Th-T fluorescence, mean of three wells (Fig. 7a)” value (from here on “Th-T fluorescence … (Fig. 7a)”) (column suffix _10, measurement M19) was 2.572. For the same compound, the “Th-T fluorescence … (Fig. 7a)” value (column suffix _10, measurement M20) was 2.604, the “Th-T fluorescence … (Fig. 7a)” value (column suffix _10, measurement M21) was 2.632 and the “Th-T fluorescence … (Fig. 7a)” value (column suffix _10, measurement M22) was 2.671. For the same compound, the “Th-T fluorescence … (Fig. 7a)” value (column suffix _10, measurement M23) was 2.692, the “Th-T fluorescence … (Fig. 7a)” value (column suffix _10, measurement M24) was 2.757 and the “Th-T fluorescence … (Fig. 7a)” value (column suffix _10, measurement M25) was 2.768. For the same compound, the “Th-T fluorescence … (Fig. 7a)” value (column suffix _10, measurement M26) was 2.841, the “Th-T fluorescence … (Fig. 7a)” value (column suffix _10, measurement M27) was 2.803 and the “Th-T fluorescence … (Fig. 7a)” value (column suffix _10, measurement M28) was 2.855. For the same compound, the “Th-T fluorescence … (Fig. 7a)” value (column suffix _10, measurement M29) was 2.853, the “Th-T assay signal, mean of three wells (Fig. 7a)” value (“Th-T assay signal, mean” below) (column suffix _10, reading M1) was 0.2279 and the “Th-T assay signal, mean” value (column suffix _10, reading M2) was 0.2383. For the same compound, the “Th-T assay signal, mean” value (column suffix _10, reading M3) was 0.2633, the “Th-T assay signal, mean” value (column suffix _10, reading M4) was 0.2928 and the “Th-T assay signal, mean” value (column suffix _10, reading M5) was 0.3222. For the same compound, the “Th-T assay signal, mean” value (column suffix _10, reading M6) was 0.3621, the “Th-T assay signal, mean” value (column suffix _10, reading M7) was 0.3868 and the “Th-T assay signal, mean” value (column suffix _10, reading M8) was 0.4315. For the same compound, the “Th-T assay signal, mean” value (column suffix _10, reading M9) was 0.4649, the “Th-T assay signal, mean” value (column suffix _10, reading M10) was 0.5209 and the “Th-T assay signal, mean” value (column suffix _10, reading M11) was 0.5656. The “Th-T assay signal, mean” value (column suffix _10, reading M12) was 0.6921, the “Th-T assay signal, mean” value (column suffix _10, reading M13) was 1.089 and the “Th-T assay signal, mean” value (column suffix _10, reading M14) was 1.582. The “Th-T assay signal, mean” value (column suffix _10, reading M15) was 1.98, the “Th-T assay signal, mean” value (column suffix _10, reading M16) was 2.245 and the “Th-T assay signal, mean” value (column suffix _10, reading M17) was 2.406. For the same compound, the “Th-T assay signal, mean” value (column suffix _10, reading M18) was 2.511, the “Fig. 7a Th-T reading, mean of three wells” value (shortened to “Fig. 7a Th-T reading, mean”) (column suffix _10, reading M85) was 3.136 and the “Fig. 7a Th-T reading, mean” value (column suffix _10, reading M86) was 3.133. The “Fig. 7a Th-T reading, mean” value (column suffix _10, reading M87) was 3.112, the “Fig. 7a Th-T reading, mean” value (column suffix _10, reading M88) was 3.093 and the “Fig. 7a Th-T reading, mean” value (column suffix _10, reading M89) was 3.066. For the same compound, the “Fig. 7a Th-T reading, mean” value (column suffix _10, reading M90) was 3.046, the “Fig. 7a Th-T reading, mean” value (column suffix _10, reading M91) was 3.03 and the “Fig. 7a Th-T reading, mean” value (column suffix _10, reading M92) was 3.012. For the same compound, the “Fig. 7a Th-T reading, mean” value (column suffix _10, reading M93) was 2.997, the “Fig. 7a Th-T reading, mean” value (column suffix _10, reading M94) was 2.971 and the “Fig. 7a Th-T reading, mean” value (column suffix _10, reading M95) was 2.948. The “Fig. 7a Th-T reading, mean” value (column suffix _10, reading M96) was 2.943, the “Fig. 7a Th-T reading, mean” value (column suffix _10, reading M97) was 2.923 and the “Fig. 7a Th-T reading, mean” value (column suffix _10, reading M98) was 2.913. The “Fig. 7a Th-T reading, mean” value (column suffix _10, reading M99) was 2.8964, the “Fig. 7a Th-T reading, mean” value (column suffix _10, reading M100) was 2.873 and the “Fig. 7a Th-T reading, mean” value (column suffix _10, reading M101) was 2.854. The “Fig. 7a Th-T reading, mean” value (column suffix _10, reading M102) was 2.835, the “Fig. 7a Th-T reading, mean” value (column suffix _10, reading M103) was 2.818 and the “Fig. 7a Th-T reading, mean” value (column suffix _10, reading M104) was 2.806. For the same compound, the “Fig. 7a Th-T reading, mean” value (column suffix _10, reading M105) was 2.7797, the “Fig. 7a Th-T reading, mean” value (column suffix _10, reading M106) was 2.769 and the “Th-T fluorescence … (Fig. 7a)” value (column suffix _20, measurement M19) was 2.538. For the same compound, the “Th-T fluorescence … (Fig. 7a)” value (column suffix _20, measurement M20) was 2.543, the “Th-T fluorescence … (Fig. 7a)” value (column suffix _20, measurement M21) was 2.5199 and the “Th-T fluorescence … (Fig. 7a)” value (column suffix _20, measurement M22) was 2.494. For the same compound, the “Th-T fluorescence … (Fig. 7a)” value (column suffix _20, measurement M23) was 2.481, the “Th-T fluorescence … (Fig. 7a)” value (column suffix _20, measurement M24) was 2.476 and the “Th-T fluorescence … (Fig. 7a)” value (column suffix _20, measurement M25) was 2.43. For the same compound, the “Th-T fluorescence … (Fig. 7a)” value (column suffix _20, measurement M26) was 2.427, the “Th-T fluorescence … (Fig. 7a)” value (column suffix _20, measurement M27) was 2.441 and the “Th-T fluorescence … (Fig. 7a)” value (column suffix _20, measurement M28) was 2.387. For the same compound, the “Th-T fluorescence … (Fig. 7a)” value (column suffix _20, measurement M29) was 2.411, the “Th-T fluorescence … (Fig. 7a)” value (column suffix _20, measurement M30) was 2.389 and the “Th-T assay signal, mean” value (column suffix _20, reading M1) was 0.2949. For the same compound, the “Th-T assay signal, mean” value (column suffix _20, reading M2) was 0.3314, the “Th-T assay signal, mean” value (column suffix _20, reading M3) was 0.3699 and the “Th-T assay signal, mean” value (column suffix _20, reading M4) was 0.6391. For the same compound, the “Th-T assay signal, mean” value (column suffix _20, reading M5) was 1.147, the “Th-T assay signal, mean” value (column suffix _20, reading M6) was 1.822 and the “Th-T assay signal, mean” value (column suffix _20, reading M7) was 2.22. For the same compound, the “Th-T assay signal, mean” value (column suffix _20, reading M8) was 2.421, the “Th-T assay signal, mean” value (column suffix _20, reading M9) was 2.522 and the “Th-T assay signal, mean” value (column suffix _20, reading M10) was 2.562. For the same compound, the “Th-T assay signal, mean” value (column suffix _20, reading M11) was 2.583, the “Th-T assay signal, mean” value (column suffix _20, reading M12) was 2.606 and the “Th-T assay signal, mean” value (column suffix _20, reading M13) was 2.583. The “Th-T assay signal, mean” value (column suffix _20, reading M14) was 2.612, the “Th-T assay signal, mean” value (column suffix _20, reading M15) was 2.602 and the “Th-T assay signal, mean” value (column suffix _20, reading M16) was 2.5699. The “Th-T assay signal, mean” value (column suffix _20, reading M17) was 2.585, the “Th-T assay signal, mean” value (column suffix _20, reading M18) was 2.567 and the “Fig. 7a Th-T reading, mean” value (column suffix _20, reading M85) was 2.083. The “Fig. 7a Th-T reading, mean” value (column suffix _20, reading M86) was 2.058, the “Fig. 7a Th-T reading, mean” value (column suffix _20, reading M87) was 2.078 and the “Fig. 7a Th-T reading, mean” value (column suffix _20, reading M88) was 2.109. The “Fig. 7a Th-T reading, mean” value (column suffix _20, reading M89) was 2.106, the “Fig. 7a Th-T reading, mean” value (column suffix _20, reading M90) was 2.088 and the “Fig. 7a Th-T reading, mean” value (column suffix _20, reading M91) was 2.094. For the same compound, the “Fig. 7a Th-T reading, mean” value (column suffix _20, reading M92) was 2.104, the “Fig. 7a Th-T reading, mean” value (column suffix _20, reading M93) was 2.083 and the “Fig. 7a Th-T reading, mean” value (column suffix _20, reading M94) was 2.114. The “Fig. 7a Th-T reading, mean” value (column suffix _20, reading M95) was 2.102, the “Fig. 7a Th-T reading, mean” value (column suffix _20, reading M96) was 2.08 and the “Fig. 7a Th-T reading, mean” value (column suffix _20, reading M97) was 2.11. The “Fig. 7a Th-T reading, mean” value (column suffix _20, reading M98) was 2.085, the “Fig. 7a Th-T reading, mean” value (column suffix _20, reading M99) was 2.135 and the “Fig. 7a Th-T reading, mean” value (column suffix _20, reading M100) was 2.117.
